Tests used:
[1] = tested on: IMC-1 (IL-2 20 ng/mL); assay: percent inhibition of viability; higher = more inhibition; settings: 72 h
[2] = tested on: normal primary NK cells, pool 3 (3 donors) (IL-2 2.5 ng/mL); assay: as above; settings: 72 h
[3] = tested on: YT (IL-2 2.5 ng/mL); assay: as above; settings: 72 h
[4] = tested on: normal primary NK cells, pool 1 (3 donors) (IL-2 2.5 ng/mL); assay: as above; settings: 72 h
[5] = tested on: KHYG-1 (IL-2 2.5 ng/mL); assay: as above; settings: 72 h
[6] = tested on: NK-92 (IL-2 2.5 ng/mL); assay: as above; settings: 72 h
[7] = tested on: normal primary NK cells, pool 1 (3 donors), resting (IL-2 0 ng/mL); assay: as above; settings: 72 h
[8] = tested on: KAI3 (IL-2 2.5 ng/mL); assay: as above; settings: 72 h
[9] = tested on: normal primary NK cells, pool 2 (3 donors) (IL-2 2.5 ng/mL); assay: as above; settings: 72 h
[10] = tested on: NKL (IL-2 2.5 ng/mL); assay: as above; settings: 72 h
[11] = tested on: SNK-6 (IL-2 2.5 ng/mL); assay: as above; settings: 72 h
[12] = tested on: NK-YS (IL-2 2.5 ng/mL); assay: as above; settings: 72 h
[13] = tested on: DERL-7 (IL-2 2.5 ng/mL); assay: as above; settings: 72 h
[14] = tested on: IMC-1 (IL-2 20 ng/mL); assay: drug sensitivity score (DSS) (DSS units); higher = more sensitive; extreme values may be limits of the assay; settings: 72 h
[15] = tested on: normal primary NK cells, pool 3 (3 donors) (IL-2 2.5 ng/mL); assay: as above; settings: 72 h
[16] = tested on: YT (IL-2 2.5 ng/mL); assay: as above; settings: 72 h
[17] = tested on: normal primary NK cells, pool 1 (3 donors) (IL-2 2.5 ng/mL); assay: as above; settings: 72 h
[18] = tested on: KHYG-1 (IL-2 2.5 ng/mL); assay: as above; settings: 72 h
[19] = tested on: NK-92 (IL-2 2.5 ng/mL); assay: as above; settings: 72 h
[20] = tested on: normal primary NK cells, pool 1 (3 donors), resting (IL-2 0 ng/mL); assay: as above; settings: 72 h
[21] = tested on: KAI3 (IL-2 2.5 ng/mL); assay: as above; settings: 72 h
[22] = tested on: normal primary NK cells, pool 2 (3 donors) (IL-2 2.5 ng/mL); assay: as above; settings: 72 h
[23] = tested on: NKL (IL-2 2.5 ng/mL); assay: as above; settings: 72 h
[24] = tested on: SNK-6 (IL-2 2.5 ng/mL); assay: as above; settings: 72 h
[25] = tested on: NK-YS (IL-2 2.5 ng/mL); assay: as above; settings: 72 h
[26] = tested on: DERL-7 (IL-2 2.5 ng/mL); assay: as above; settings: 72 h
[27] = tested on: normal NK cells expanded with K562-aAPC; assay: percent inhibition of viability; higher = more inhibition; settings: 72 h, IL-2 2.5 ng/mL
Description: (§1)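 Drug sensitivity and resistance testing on K562-aAPC-expanded normal NK cells: 5 concentrations (10-fold steps over a 10,000-fold range), 72 h at 37 °C, viability by CellTiter-Glo normalised to DMSO and benzethonium chloride controls; DSS from the fitted curve.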

[28] = tested on: normal NK cells expanded with K562-aAPC; assay: drug sensitivity score (DSS) (DSS units); higher = more sensitive; extreme values may be limits of the assay; settings: 72 h; IL-2 2.5 ng/mL
Description: as §1

Cc1c(Cn2c(C)nc3c(C(=O)O)cc(N4CCOCC4)cc32)cccc1C(F)(F)F (max concentration tested 10000 nM)
percent inhibition of viability [%]
Settings | 1 nM | 10 nM | 100 nM | 1000 nM | 10000 nM
[1] | -6.71 | -4.25 | -1.73 | -3.09 | 11.3
[2] | -1.55 | 0.84 | 4.49 | -0.45 | 11.4
[3] | 1 | 6.27 | 9.12 | 14.3 | 16.5
[4] | -6.21 | 1.65 | -5.56 | -4.02 | 4.77
[5] | -2.27 | 6.11 | 14.1 | 8.86 | 38.2
[6] | -7.97 | -2.84 | 22 | 7.51 | 49
[7] | -5.25 | 4.41 | 3.22 | -19.1 | -11.9
[8] | 8.08 | 9.48 | 9.01 | 12.5 | 37.9
[9] | -11.1 | -13.9 | -1.99 | 1.31 | 13.6
[10] | -15.7 | -8.49 | -1.03 | 1.51 | 14.1
[11] | -7.05 | -21.9 | 3.71 | -6.21 | 13.1
[12] | -2.91 | -0.33 | 7.31 | 5.6 | 15.8
[13] | 3.53 | -4.49 | 1.36 | 12.1 | 13.4
[27] | 2.47 | -0.33 | 2.82 | 11.7 | 17.4

Settings | drug sensitivity score
[14] | 0
[15] | 0.01
[16] | 1.67
[17] | 0
[18] | 3.2
[19] | 3.86
[20] | 0
[21] | 3.6
[22] | 0.23
[23] | 0.29
[24] | 0.03
[25] | 0.34
[26] | 0.85
[28] | 1.17

Cc1c(NC(=O)OC[C@@H]2COCCN2)cn2ncnc(Nc3ccc4c(cnn4Cc4cccc(F)c4)c3)c12 (max concentration tested 10000 nM)
percent inhibition of viability [%]
Settings | 1 nM | 10 nM | 100 nM | 1000 nM | 10000 nM
[1] | -5.26 | -0.97 | 0.8 | 4.51 | 43.6
[2] | -5.86 | 2.09 | 3.41 | -2.09 | 44
[3] | 2.59 | 1.59 | 4.74 | 2.33 | 47.5
[4] | 1.48 | -6.08 | -9.4 | -15 | 34.3
[5] | 4.55 | 7.44 | 7.32 | 8.8 | 77.5
[6] | -5.71 | -0.55 | 7.56 | 7.66 | 105
[7] | 4.93 | -4.06 | 4.13 | -12.6 | 58.4
[8] | 1.51 | 4.45 | 5.56 | -0.23 | 65.3
[9] | -13 | -2.17 | -2.11 | 0.64 | 57.2
[10] | -10.7 | 1.23 | -8.56 | 0.45 | 55.9
[11] | -6.28 | -7.55 | -9.76 | -27.8 | 33.1
[12] | 1.47 | 0.48 | 3.03 | 2.38 | 38.8
[13] | -2.53 | -0.41 | -0.2 | 2.93 | 52.5
[27] | 6.16 | 1.61 | -2.01 | 5.74 | 30.1

Settings | drug sensitivity score
[14] | 2.97
[15] | 2.07
[16] | 2.8
[17] | 1.06
[18] | 5.75
[19] | 7.04
[20] | 2.48
[21] | 3.56
[22] | 3.16
[23] | 3.06
[24] | 0.86
[25] | 2.25
[26] | 3.21
[28] | 2.22

Cc1nc(Nc2n[nH]c3c2CN(C(=O)N[C@H](CN(C)C)c2ccccc2)C3(C)C)c2sccc2n1 (max concentration tested 10000 nM)
percent inhibition of viability [%]
Settings | 1 nM | 10 nM | 100 nM | 1000 nM | 10000 nM
[1] | -7.89 | 94 | 100 | 100 | 101
[2] | -6.36 | 3.67 | 21.6 | 29.7 | 98.9
[3] | 0.99 | 13.6 | 41.7 | 56 | 104
[4] | 5.07 | 3.65 | 18.4 | 34.4 | 98.8
[5] | 3.44 | 16.8 | 81.4 | 96.4 | 106
[6] | 2.81 | 5.29 | 27.2 | 59.5 | 105
[7] | 5.47 | -19.5 | 8.53 | 35.1 | 92.2
[8] | 9.34 | 25.2 | 38.2 | 52.7 | 103
[9] | -7.71 | 9.61 | 27.4 | 49.4 | 98.1
[10] | -10.4 | 9.99 | 31.3 | 50.3 | 103
[11] | -2.61 | 16.3 | 16 | 31.2 | 87.1
[12] | 0.35 | 42.8 | 54.1 | 57.7 | 101
[13] | 5.19 | 43.4 | 60.3 | 59.5 | 100
[27] | 4.54 | 6.07 | 22.4 | 41.8 | 101

Settings | drug sensitivity score
[14] | 41.6
[15] | 8.84
[16] | 17.5
[17] | 9.34
[18] | 29.5
[19] | 15.2
[20] | 9.24
[21] | 18.1
[22] | 13.5
[23] | 14.4
[24] | 8.41
[25] | 23
[26] | 24.7
[28] | 11.5

Nc1ncnc2c1c(COc1cccc(Cl)c1)nn2C1CCOCC1 (max concentration tested 10000 nM)
percent inhibition of viability [%]
Settings | 1 nM | 10 nM | 100 nM | 1000 nM | 10000 nM
[1] | -0.63 | -0.09 | 1.3 | 2.67 | 5.66
[2] | -12.8 | -14.6 | -0.61 | 5.01 | 13
[3] | 5.62 | 8.61 | 4.5 | 8.08 | 29.8
[4] | -5.02 | -2.71 | -7 | -1.66 | 12.2
[5] | 3.82 | 3.26 | 2.76 | 9.04 | 2.95
[6] | 5.04 | -5.45 | 2.8 | 11.6 | 20.2
[7] | -7.87 | -6 | -17.2 | 5.79 | 10.6
[8] | -4.22 | -5.6 | -4.5 | -2.39 | 10.8
[9] | -11.2 | -9.94 | -1.24 | -2.49 | 18.9
[10] | 2.65 | 1.05 | 6.33 | 7.05 | 28
[11] | 11.9 | 13.8 | -0.97 | 16.6 | 15
[12] | -2.03 | -5.09 | -3.81 | -2.25 | 1.95
[13] | -1.45 | -6.37 | 0.64 | 4.1 | 23.4
[27] | -1.33 | -1.38 | -0.63 | 3.72 | 15.8

Settings | drug sensitivity score
[14] | 0
[15] | 0.39
[16] | 2.23
[17] | 0.03
[18] | 0
[19] | 1.45
[20] | 0.06
[21] | 0
[22] | 0.39
[23] | 1.92
[24] | 0
[25] | 0
[26] | 1.44
[28] | 0.66

O=C(NOCC1CC1)c1ccc(F)c(F)c1Nc1ccc(I)cc1Cl (max concentration tested 10000 nM)
percent inhibition of viability [%]
Settings | 1 nM | 10 nM | 100 nM | 1000 nM | 10000 nM
[1] | 2.83 | 1.66 | 4.76 | 7.54 | 65.8
[2] | -3.37 | 0.57 | -3.93 | -0.21 | 13.6
[3] | 1.25 | 1.46 | 5.39 | 14.5 | 82.6
[4] | -7.14 | -7.1 | 14.2 | 13 | 17.1
[5] | 2.03 | 1.47 | 16.1 | 39 | 82.4
[6] | 2.8 | 6.04 | -10.5 | -0.9 | 95.2
[7] | -5.53 | 0.69 | 6.91 | 8.17 | 44.4
[8] | 15 | 14.8 | 26.2 | 27.5 | 80.7
[9] | -2.72 | -4.8 | -4.96 | 4.5 | 21
[10] | 9.41 | 19 | 33.2 | 57.9 | 83.2
[11] | -8.27 | -11.4 | -27.2 | -19.6 | 97.3
[12] | 3.04 | 1.78 | 6.53 | 13.3 | 59.9
[13] | 2.61 | 5.1 | 12.3 | 29.5 | 78
[27] | -3.45 | -0.57 | -0.04 | 3.29 | 35.4

Settings | drug sensitivity score
[14] | 4.87
[15] | 0.13
[16] | 6.98
[17] | 3.11
[18] | 9.71
[19] | 5.23
[20] | 3.64
[21] | 11.1
[22] | 1.26
[23] | 16.6
[24] | 4.38
[25] | 5.39
[26] | 7.6
[28] | 2.2

Source: the supplement of paper PMC5908809
